Read-outs that look alike come from different tables or passages of the source.
Test system: PopD E3 M-833 resistant clone (PfSTART1 N309K)
Assay: Growth inhibition assay (72 h, LDH activity)
Type: cell-based, Plasmodium falciparum
Method: The drug was then removed, and parasites were allowed to recover. Another cycle of drug treatment (3 μM M-833) was then resumed. The resistant lines were cloned out by limiting dilution (diluting the culture into a 96-well plate to achieve an average of ~0.3 parasites per well), prior to growth inhibition assays and genomic DNA (gDNA) extraction (DNeasy Blood and Tissue kit (Qiagen)[18].
Parasite growth assays with inhibitory compounds were performed as per[11] and are fully described in the Supplementary Information.
Molecular biology and transfection of P. falciparum: CRISPR method.
The full 5’ homology region of pfstart1 (either WT, N309K or N330K) was amplified from pPfSTART1-HA-2A-Neo-glmS with the same 5’ BglII primer and a new 3’ primer that replaced with PstI with SpeI and introduced a stop codon. The PCR product was then digested with BglII and SpeI and inserted into similarly digested p1.2 parasite vector2. The p1.2 vector had previously been inserted with a homology region amplified from the 3’ end of the pfstart1 gene (3’HB) to form a second homology block for double recombination. The primers used to amplify 3’HB are listed primers listed in […]
60 μg of p1.2-PfSTART1(WT/N309K/N330K) plasmid was linearised with KasI, precipitated in 3 M sodium acetate and ethanol (70% final concentration) overnight at -20°C. The DNA pellet was washed in cold 70% ethanol and resuspended in cytomix 3.
50 μ M of crRNA ( Table S 2) and 50 μM of tracRNA (Integrated DNA Technologies) were allowed to form a duplex (5 min at 95°C), and Cas9 enzyme (Integrated DNA Technologies) was added, and incubated for 20 min at room temperature 4. This crRNA -tracRNA -Cas9 mix was added to each DNA preparation and transfected to 3D7 ring parasites using the Bio -Rad Gene Pulser at 310 V and 950 μF.
Parasites containing the transfected DNA were selected using 2.5 nM WR99210 (Jacobus). Parasites lines were cloned using limiting dilution. Correct integration was tested by PCR (using primer START_5’UTR.F and START_Int.R1 , Table S 2), and sequencing was done using the primers START_3F and START_Int.R2 (Table S 2).
Growth inhibition assays. Synchronised ring-stage parasites (0.3-0.6% parasitemia, 2% haematocrit) were grown for 72 h in a serial-dilution of the compound under […]
and compound 4. Note that M-833 was first purchased from MolPort (MolPort -002-267-916) then made in-house at WEHI: the differences observed in EC50s across experiments are attributed to the different batches of M -833. For some experiments, 0, 0.25 or 2.5 mM of glucosamine (GlcN) was also added. Experiments were set up in technical duplicates or triplicates. Following a freeze -thaw cycle, lactate dehydrogenase (LDH) activity was assessed as an indicator of parasite growt h 5. 30 μL of parasite culture was incubated for 30 min in the dark with 75 μL Malstat mixture (0.1 M Tris pH 9.0, 20 g/L lactic acid, pH 7.5, 0.2% Triton-X100, 0.5 g/L acetylpyridine adenine dinucleotide (APAD, Sigma), 200 μg/mL nitroblue tetrazolium (NBT; Sigma), 1 μg/mL phenozine ethosulfate (PES; Sigma)). Absorbance was then measured at 650 nm, transformed using the formula below, plotted against the logarithm of the concentrations, and a non-linear regression (log(inhibitor) vs. response, variable slope) was calculated using GraphPad Prism to assess the half-inhibitory […]
Growth inhibition % = (1 − average(sample)− average(uRBC)) ∗ 100 […]
The DMSO samples were also used to assess growth of parasite in the presence of 0.25 and 2.5 mM GlcN (normalised by DMSO in 0 mM GlcN).
Egress, invasion & recovery assay. To measure egress, invasion and follow up recovery in the presence of different compounds, we adapted the method developed in6, using Hyp1-Nluc parasites7. These parasites episomally express the exported PEXEL protein Hyp1 (PF3D7_0113300) tagged with a NanoLuc luciferase (NLuc) and were selected with 2.5 nM WR99210 (Jacobus). Highly synchronised schizonts were […]

Cc1cc(Cl)c(S(=O)(=O)N2CCCC2)cc1OCC(=O)NC1CCCCC1 [M-833]
Normalised to DMSO (M-833 0.0390625 uM, Pop D-E3 replicate 1): 112.377
Normalised to DMSO (M-833 0.0390625 uM, Pop D-E3 replicate 3): 111.25
Normalised to DMSO (M-833 0.078125 uM, Pop D-E3 replicate 1): 99.4191
Normalised to DMSO (M-833 0.078125 uM, Pop D-E3 replicate 3): 110.5
Normalised to DMSO (M-833 0.15625 uM, Pop D-E3 replicate 1): 107.328
Normalised to DMSO (M-833 0.15625 uM, Pop D-E3 replicate 3): 114.438
Normalised to DMSO (M-833 0.3125 uM, Pop D-E3 replicate 1): 106.122
Normalised to DMSO (M-833 0.3125 uM, Pop D-E3 replicate 3): 114.625
Normalised to DMSO (M-833 0.625 uM, Pop D-E3 replicate 1): 101.028
Normalised to DMSO (M-833 0.625 uM, Pop D-E3 replicate 3): 107.875
Normalised to DMSO (M-833 1.25 uM, Pop D-E3 replicate 1): 86.6399
Normalised to DMSO (M-833 1.25 uM, Pop D-E3 replicate 3): 110.688
Normalised to DMSO (M-833 2.5 uM, Pop D-E3 replicate 1): 72.8552
Normalised to DMSO (M-833 2.5 uM, Pop D-E3 replicate 3): 90.4375
Normalised to DMSO (M-833 5 uM, Pop D-E3 replicate 1): 44.37
Normalised to DMSO (M-833 5 uM, Pop D-E3 replicate 3): 73.375
Normalised to DMSO (M-833 10 uM, Pop D-E3 replicate 1): 23.9276
Normalised to DMSO (M-833 10 uM, Pop D-E3 replicate 3): 62.6875
inhibition at 0.0390625 µM (Plasmodium falciparum, M-833 0.0390625 uM, Pop D-E3 replicate 1, read-out: % Inhibition): -12.4%
inhibition at 0.0390625 µM (Plasmodium falciparum, M-833 0.0390625 uM, Pop D-E3 replicate 3, read-out: % Inhibition): -11.2%
inhibition at 0.078125 µM (Plasmodium falciparum, M-833 0.078125 uM, Pop D-E3 replicate 1, read-out: % Inhibition): 0.581%
inhibition at 0.078125 µM (Plasmodium falciparum, M-833 0.078125 uM, Pop D-E3 replicate 3, read-out: % Inhibition): -10.5%
inhibition at 0.15625 µM (Plasmodium falciparum, M-833 0.15625 uM, Pop D-E3 replicate 1, read-out: % Inhibition): -7.33%
inhibition at 0.15625 µM (Plasmodium falciparum, M-833 0.15625 uM, Pop D-E3 replicate 3, read-out: % Inhibition): -14.4%
inhibition at 0.3125 µM (Plasmodium falciparum, M-833 0.3125 uM, Pop D-E3 replicate 1, read-out: % Inhibition): -6.12%
inhibition at 0.3125 µM (Plasmodium falciparum, M-833 0.3125 uM, Pop D-E3 replicate 3, read-out: % Inhibition): -14.6%
inhibition at 0.625 µM (Plasmodium falciparum, M-833 0.625 uM, Pop D-E3 replicate 1, read-out: % Inhibition): -1.03%
inhibition at 0.625 µM (Plasmodium falciparum, M-833 0.625 uM, Pop D-E3 replicate 3, read-out: % Inhibition): -7.88%
inhibition at 1.25 µM (Plasmodium falciparum, M-833 1.25 uM, Pop D-E3 replicate 1, read-out: % Inhibition): 13.4%
inhibition at 1.25 µM (Plasmodium falciparum, M-833 1.25 uM, Pop D-E3 replicate 3, read-out: % Inhibition): -10.7%
inhibition at 2.5 µM (Plasmodium falciparum, M-833 2.5 uM, Pop D-E3 replicate 1, read-out: % Inhibition): 27.1%
inhibition at 2.5 µM (Plasmodium falciparum, M-833 2.5 uM, Pop D-E3 replicate 3, read-out: % Inhibition): 9.56%
inhibition at 5 µM (Plasmodium falciparum, M-833 5 uM, Pop D-E3 replicate 1, read-out: % Inhibition): 55.6%
inhibition at 5 µM (Plasmodium falciparum, M-833 5 uM, Pop D-E3 replicate 3, read-out: % Inhibition): 26.6%
inhibition at 10 µM (Plasmodium falciparum, M-833 10 uM, Pop D-E3 replicate 1, read-out: % Inhibition): 76.1%
inhibition at 10 µM (Plasmodium falciparum, M-833 10 uM, Pop D-E3 replicate 3, read-out: % Inhibition): 37.3%
inhibition at 0.0390625 µM (Plasmodium falciparum, Pop D-E3 replicate 1, M-833 0.0390625 uM): 2.67%
inhibition at 0.078125 µM (Plasmodium falciparum, Pop D-E3 replicate 1, M-833 0.078125 uM): -1.86%
inhibition at 0.15625 µM (Plasmodium falciparum, Pop D-E3 replicate 1, M-833 0.15625 uM): 1.05%
inhibition at 0.3125 µM (Plasmodium falciparum, Pop D-E3 replicate 1, M-833 0.3125 uM): 2.17%
inhibition at 0.625 µM (Plasmodium falciparum, Pop D-E3 replicate 1, M-833 0.625 uM): 5.06%
inhibition at 1.25 µM (Plasmodium falciparum, Pop D-E3 replicate 1, M-833 1.25 uM): 17.9%
inhibition at 2.5 µM (Plasmodium falciparum, Pop D-E3 replicate 1, M-833 2.5 uM): 29.5%
inhibition at 5 µM (Plasmodium falciparum, Pop D-E3 replicate 1, M-833 5 uM): 46.7%
inhibition at 10 µM (Plasmodium falciparum, Pop D-E3 replicate 1, M-833 10 uM): 65.4%
EC50 (Plasmodium falciparum, read-out: EC50 (95% confidence interval)): 3.53 µM
Normalised to DMSO (Pop D-E3 replicate 1, M-833 0.0390625 uM): 97.3266
Normalised to DMSO (Pop D-E3 replicate 1, M-833 0.078125 uM): 101.86
Normalised to DMSO (Pop D-E3 replicate 1, M-833 0.15625 uM): 98.9539
Normalised to DMSO (Pop D-E3 replicate 1, M-833 0.3125 uM): 97.8303
Normalised to DMSO (Pop D-E3 replicate 1, M-833 0.625 uM): 94.9438
Normalised to DMSO (Pop D-E3 replicate 1, M-833 1.25 uM): 82.1
Normalised to DMSO (Pop D-E3 replicate 1, M-833 2.5 uM): 70.5347
Normalised to DMSO (Pop D-E3 replicate 1, M-833 5 uM): 53.3127
Normalised to DMSO (Pop D-E3 replicate 1, M-833 10 uM): 34.6377
